Converted amounts (≈) assume the structure as drawn. Counter-ions that a name gives are not always drawn. Like-named read-outs stand apart in the source and are kept apart here.
Legend:
Assay in all cases: microbe, parasite or virus in culture
Mtb-lineage2 = format: cell-based, Mycobacterium tuberculosis; settings: for MIC / IC50: Mycobacterium tuberculosis; for direct inhibition of growth: Mtb-lineage2, in-vitro, 5, 10 and 50 μM, over 20 days
Mtb-lineage4 = format: cell-based, Mycobacterium tuberculosis; settings: for direct inhibition of growth: Mtb-lineage4, in-vitro, 5, 10 and 50 μM, over 20 days
M. bovis = format: cell-based, Mycobacterium bovis; settings: for MIC: Mycobacterium tuberculosis variant bovis
Maf-lineage5 = format: cell-based, Mycobacterium africanum; settings: for direct inhibition of growth: Maf-lineage5, in-vitro, 5, 10 and 50 μM, over 20 days
Maf-lineage6 = format: cell-based, Mycobacterium africanum; settings: for direct inhibition of growth: Maf-lineage6, in-vitro, 5, 10 and 50 μM, over 20 days; for MIC: Mycobacterium tuberculosis

## COc1cc2ncnc(Nc3ccc(F)c(Cl)c3)c2cc1OCCCN1CCOCC1 [Gefitinib]
Mtb-lineage2; 240 h
  MIC: 54.3 µM (≈ 24.3 µg/mL)
Mtb-lineage2; 288 h
  MIC: 54.3 µM (≈ 24.3 µg/mL)
Mtb-lineage2; 312 h
  MIC: 52.2 µM (≈ 23.3 µg/mL)
Mtb-lineage2; 336 h
  MIC: 54.8 µM (≈ 24.5 µg/mL)
Mtb-lineage2; […]
  MIC: 52.7 µM (≈ 23.6 µg/mL)

## Cc1ccc(NC(=O)c2ccc(CN3CCN(C)CC3)cc2)cc1Nc1nccc(-c2cccnc2)n1 [Imatinib, Imatinib mesylate]
Mtb-lineage2; Example 4, Mtb-lineage2, concentrations up to 200 μM
  susceptibility to direct inhibition: more susceptible to direct inhibition
Mtb-lineage2
  direct inhibition of growth: directly restricted the growth
Mtb-lineage2; 240 h, Mtb-lineage2 (a), Day 10, read-out: MIC
  MIC: 56 µM
Mtb-lineage2; 240 h, Mtb-lineage2 (b), Day 10, read-out: MIC
  MIC: 60.4 µM
Mtb-lineage2; 240 h, Mtb-lineage2, Day 10, read-out: MIC
  MIC: 56 µM
Mtb-lineage2; 288 h, Mtb-lineage2 (a), Day 12, read-out: MIC
  MIC: 56.7 µM
Mtb-lineage2; 288 h, Mtb-lineage2 (b), Day 12, read-out: MIC
  MIC: 60.7 µM
Mtb-lineage2; 288 h, Mtb-lineage2, Day 12, read-out: MIC
  MIC: 56.7 µM
Mtb-lineage2; 312 h, Mtb-lineage2 (a), Day 13, read-out: MIC
  MIC: 57.1 µM
Mtb-lineage2; 312 h, Mtb-lineage2 (b), Day 13, read-out: MIC
  MIC: 60.5 µM
Mtb-lineage2; 312 h, Mtb-lineage2, Day 13, read-out: MIC
  MIC: 57.1 µM
Mtb-lineage2; 336 h, Mtb-lineage2 (a), Day 14, read-out: MIC
  MIC: 57.4 µM
Mtb-lineage2; 336 h, Mtb-lineage2 (b), Day 14, read-out: MIC
  MIC: 85.4 µM
Mtb-lineage2; 336 h, Mtb-lineage2, Day 14, read-out: MIC
  MIC: 57.4 µM
Mtb-lineage2; 360 h, Mtb-lineage2 (a), Day 15, read-out: MIC
  MIC: 57.8 µM
Mtb-lineage2; 360 h, Mtb-lineage2 (b), Day 15, read-out: MIC
  MIC: 86.7 µM
Mtb-lineage2; […], Mtb-lineage2 (a), Day 11, read-out: MIC
  MIC: 56.4 µM
Mtb-lineage2; […], Mtb-lineage2 (b), Day 11, read-out: MIC
  MIC: 61 µM
Mtb-lineage2; […], Mtb-lineage2, Day 11, read-out: MIC
  MIC: 56.4 µM
Mtb-lineage4; Example 4, Mtb-lineage4, concentrations up to 200 μM
  susceptibility to direct inhibition: more susceptible to direct inhibition
Mtb-lineage4; Mtb-lineage4, Day 11
  MIC: Unstable
Mtb-lineage4; Mtb-lineage4, Day 12
  MIC: Unstable
Mtb-lineage4; Mtb-lineage4, Day 13
  MIC: Unstable
Mtb-lineage4; Mtb-lineage4, Day 14
  MIC: Unstable
Mtb-lineage4
  direct inhibition of growth: not
Mtb-lineage4; Mycobacterium tuberculosis, 240 h, Mtb-lineage4, Day 10, read-out: MIC
  MIC: 98.8 µM
M. bovis
  direct inhibition of growth: directly restricted the growth
  susceptibility to direct inhibition: more susceptible to direct inhibition
M. bovis; 240 h
  MIC: 8.39 µM
M. bovis; 288 h
  MIC: 21.1 µM
M. bovis; 312 h
  MIC: 25.6 µM
M. bovis; 336 h
  MIC: 30.3 µM
M. bovis; 360 h
  MIC: 35.2 µM
M. bovis; […]
  MIC: 16.3 µM
Maf-lineage5; 240 h, Maf-lineage5, Day 10
  MIC: 58.1 µM
Maf-lineage5; 288 h, Maf-lineage5, Day 12
  MIC: 60.8 µM
Maf-lineage5; 312 h, Maf-lineage5, Day 13
  MIC: 62 µM
Maf-lineage5; 336 h, Maf-lineage5, Day 14
  MIC: 63.4 µM
Maf-lineage5; 360 h, Maf-lineage5, Day 15
  MIC: 65.2 µM
Maf-lineage5; Example 4, Maf-lineage5, concentrations up to 200 μM
  susceptibility to direct inhibition: more susceptible to direct inhibition
Maf-lineage5; Maf-lineage5, Day 11
  MIC: 59.5 µM
Maf-lineage5
  direct inhibition of growth: not
Maf-lineage6
  response to drug: didn't respond
  direct inhibition of growth: not
Maf-lineage6; Example 4, Maf-lineage6 (c), concentrations up to 200 μM
  susceptibility to direct inhibition: more susceptible to direct inhibition
Maf-lineage6; 240 h, Maf-lineage6 (a), Day 10
  MIC: ~0.743 µM
Maf-lineage6; 240 h, Maf-lineage6 (b), Day 10
  MIC: ~9090 µM
Maf-lineage6; 240 h, Maf-lineage6 (c), Day 10
  MIC: 101 µM
Maf-lineage6; 240 h, Maf-lineage6 (d), Day 10
  MIC: ~46400 µM
Maf-lineage6; 288 h, Maf-lineage6 (a), Day 12
  MIC: ~0.594 µM
Maf-lineage6; 288 h, Maf-lineage6 (b), Day 12
  MIC: 1460 µM
Maf-lineage6; 288 h, Maf-lineage6 (c), Day 12
  MIC: 100 µM
Maf-lineage6; 312 h, Maf-lineage6 (a), Day 13
  MIC: ~0.562 µM
Maf-lineage6; 312 h, Maf-lineage6 (b), Day 13
  MIC: 1260 µM
Maf-lineage6; 312 h, Maf-lineage6 (c), Day 13
  MIC: 100 µM
Maf-lineage6; 336 h, Maf-lineage6 (a), Day 14
  MIC: ~0.541 µM
Maf-lineage6; 336 h, Maf-lineage6 (b), Day 14
  MIC: 1520 µM
Maf-lineage6; 336 h, Maf-lineage6 (c), Day 14
  MIC: 100 µM
Maf-lineage6; 360 h, Maf-lineage6 (a), Day 15
  MIC: ~0.515 µM
Maf-lineage6; 360 h, Maf-lineage6 (b), Day 15
  MIC: ~3590 µM
Maf-lineage6; 360 h, Maf-lineage6 (c), Day 15
  MIC: 100 µM
Maf-lineage6; […], Maf-lineage6 (a), Day 11
  MIC: ~0.721 µM
Maf-lineage6; […], Maf-lineage6 (b), Day 11
  MIC: ~2390 µM
Maf-lineage6; […], Maf-lineage6 (c), Day 11
  MIC: 101 µM

## C#Cc1cccc(Nc2ncnc3cc(OCCOC)c(OCCOC)cc23)c1 [Erlotinib]
Mtb-lineage2
  direct inhibition of growth: directly inhibit growth
Mtb-lineage2; 360 h, Mtb-lineage2, Day 15
  IC50: 16.3 µM
Mtb-lineage2; 360 h, Mtb-lineage2, Day 15, read-out: MIC
  MIC: 33 µM (≈ 13 µg/mL)
Mtb-lineage2; 384 h, Mtb-lineage2, Day 16
  IC50: 10.1 µM
Mtb-lineage2; 384 h, Mtb-lineage2, Day 16, read-out: MIC
  MIC: ~1.07 µM (≈ 0.423 µg/mL)
Mtb-lineage2; 408 h, Mtb-lineage2, Day 17
  IC50: 8.65 µM
Mtb-lineage2; 408 h, Mtb-lineage2, Day 17, read-out: MIC
  MIC: 41 µM (≈ 16.1 µg/mL)
Mtb-lineage2; 456 h, Mtb-lineage2, Day 19
  IC50: 6.79 µM
Mtb-lineage2; 456 h, Mtb-lineage2, Day 19, read-out: MIC
  MIC: 49.4 µM (≈ 19.4 µg/mL)
Mtb-lineage2; 480 h, Mtb-lineage2, Day 20
  IC50: 6.19 µM
Mtb-lineage2; […], Mtb-lineage2, Day 18
  IC50: 7.61 µM
Mtb-lineage2; […], Mtb-lineage2, Day 18, read-out: MIC
  MIC: 43.6 µM (≈ 17.1 µg/mL)
Mtb-lineage4
  direct inhibition of growth: directly inhibit growth
M. bovis
  direct inhibition of growth: directly inhibit growth
Maf-lineage5
  direct inhibition of growth: directly inhibit growth
Maf-lineage6
  direct inhibition of growth: directly inhibit growth

— patent US20250375455A1 (priority 2022, published 2025)
